# System: healthy subjects
# Test: Pictorial Empathy Test (PET)
# Assay type: in vivo, human
# Experimental: In some embodiments, the Pictorial Empathy Test (PET) is utilized to evaluate the effect of psilocybin on affective empathy.
# The following list of outcome measures are non-exhaustive. • a. The short-term change from Baseline (Day −1 [Visit 2]) to Day 7 (Visit 5) in cognitive measures of attention, spatial and working memory and executive function was measured by a composite score of the CANTAB Panel (Spatial Working Memory [SWM], Rapid Visual Information Processing [RVP], Paired Associates Learning [PAL]). • b. The short-term change from Baseline (Day −1 [Visit 2]) to Day 7 (Visit 5) in Social Cognition Panel scales (Pictorial Empathy Test [PET], Reading the Mind in the Eyes Test [RMET], Toronto Empathy Questionnaire [TEQ], Social Value Orientation [SVO], Scale of Social Responsibility [SSR]). • c. The change from Baseline (Day −1 [Visit 2]) to Day 28 (Visit 6) in cognitive measures of attention, spatial and working memory and executive function as measured by a composite score of the CANTAB Panel (SWM, RVP, PAL). • d. The long-term change from Baseline (Day −1 [Visit 2]) to Day 84 (Visit 7) in Social Cognition Panel scales (PET, RMET, TEQ, SVO, SSR). • e. Dose-related differences between cognitive effects of psilocybin at Baseline (Day −1 [Visit 2]), Day 7 (Visit 5) and Day 28 (Visit 6), as measured by a composite score of the CANTAB Panel (SWM, RVP, PAL). • f. Dose-related differences between psychological effects of psilocybin at Baseline (Day −1 [Visit 2]), Day 7 (Visit 5) and Day 84 (Visit 7), as measured by Social Cognition Panel scales (PET, RMET, TEQ, SVO, SSR). • g. Differences in cognitive effects of psilocybin between psilocybin-naïve and experienced subjects at Baseline (Day −1 [Visit 2]), Day 7 (Visit 5) and Day 28 (Visit 6), as measured by a composite score of the CANTAB Panel (SWM, RVP, PAL). • h. Differences in Positive and Negative Affect Schedule (PANAS) after study drug administration on Day 0 (Visit 3). • i. Differences between psilocybin and placebo in the Emotion Recognition Test (ERT), Intra-Extra Dimensional Set Shift (IED), One Touch Stockings (OTS), Verbal Fluency and Digit Span Forward at Day 7 (Visit 5). • j. A composite score of the CANTAB Panel, including the following tests: • i. Spatial Working Memory (SWM) (performed at Visit 2, Visit 5, and Visit 6). • ii. Rapid Visual Information Processing (RVP) (performed at Visit 2, Visit 5, and Visit 6). • iii. Paired Associates Learning (PAL) (performed at Visit 2, Visit 5, and Visit 6). • k. Cognitive Flexibility Panel • i. Emotion Recognition Task (ERT) (performed at Visit 5). • ii. Intra-Extra Dimensional Set Shift (IED) (performed at Visit 5). • iii. One Touch Stockings (OTS) (performed at Visit 5). • iv. Verbal Fluency (performed at Visit 5). • v. Digit Span Forward (performed at Visit 5). • l. Five Dimension Altered States of Consciousness questionnaire (5D-ASC) (performed at Visit 3). • m. PANAS (performed at Visit 2 and Visit 3). • n. NEO-Five Factor Inventory (NEO-FFI) (performed at Visit 2, Visit 5, and Visit 7). • o. Symptom Checklist-90 item (SCL-90) (performed at Visit 2, Visit 5, and Visit 7). • p. Life Changes Inventory (LCI): The LCI measures changes in attitudes and values after near-death experiences often used to evaluate personal transformation following spiritually oriented experiences and practices. (performed at Visit 5 and Visit 7). • q. Social Cognition Panel scales • i. Pictorial Empathy Test (PET) (performed at Visit 2, Visit 5, and Visit 7). • ii. Reading the Mind in the Eyes Test (RMET) (performed at Visit 2, Visit 5, and Visit 7). • iii. Social Value Orientation (SVO) (performed at Visit 2, Visit 5, and Visit 7). • iv. Toronto Empathy Questionnaire (TEQ) (performed at Visit 2, Visit 5, and Visit 7). • v. Scale of Social Responsibility (SSR) (performed at Visit 2, Visit 5, and Visit 7). • r. Sheehan Suicidality Tracking Scale (SSTS) • s. Mini International Neuropsychiatric Interview (MINI). • t. […]
smiles,measurement,setting,value
CN(C)CCc1c[nH]c2cccc(OP(=O)(O)O)c12 [psilocybin],"PET change from baseline, LS mean difference Psilocybin 10 mg - Placebo","Day 7, MMRM",−0.1
same,"PET change from baseline, LS mean difference Psilocybin 25 mg - Placebo","Day 7, MMRM",0.2
same,"PET change from baseline, LS mean difference Psilocybin 25 mg-10 mg","Day 7, MMRM",0.3
same,"PET change from baseline, LS mean difference Psilocybin 10 mg - Placebo","Day 84, MMRM",−0.1
same,"PET change from baseline, LS mean difference Psilocybin 25 mg - Placebo","Day 84, MMRM",0.1
same,"PET change from baseline, LS mean difference Psilocybin 25 mg-10 mg","Day 84, MMRM",0.3
